Assay results reported in patent US10704076B2, “Multi-tiered high through-put screen for compounds effective against bacterial biofilm and compounds effective for inhibiting and eradicating bacterial biofilm” (University of Cincinnati, priority 2013, dated 2020).

Tested on: S. epidermidis established biofilm
Assay: Killing of established Se biofilm by compounds Se-1 through Se-16
Assay type: cell-based, Staphylococcus epidermidis
Conditions: 300 μM compound, X / O
Description: This Example illustrates efficacy of compounds Se-1 through Se-16 at inhibiting S. epidermidis biofilm formation and/or killing established S. epidermidis biofilms. Detailed methods, materials and data are set forth in Shea, Chloe, U of Cincinnati Masters Thesis “Effectiveness of Novel Compounds at Inhibiting and Killing P. aeruginosa and S. epidermidis Biofilms” published on Mar. 17, 2013, the entire disclosure of which is incorporated herein by this reference. FIG. 8 illustrates effective inhibition of Se biofilm formation. For these experiments, Se was co-cultured with 10 μM of compounds Se-1 through Se-16 (see Table 5 for compound names and Table 6 for compound structures). A-H represents the top view of the Se biofilm, while the sagittal view is shown in I-P. The control Se biofilm is shown in A/I. Se biofilm formation in the presence of 10 μM of compound Se-3, Se-4, Se-13, Se-14, Se-15 or Se-16 as shown in B/J, C/K, D/L, E/M, F/N, G/O, and H/P, respectively. FIG. 9 illustrates effective killing of established Se biofilm. For this experiment, Se biofilms were treated with 300 μM of compounds Se-1 through Se-16. A-H represents the top view of the Se biofilm, while the sagittal view is shown in I-P. The control Se biofilm is shown in A/I. Effective killing was defined as >50% dead bacteria.

## CN(C)c1ccc(C(=C2C=CC(=[N+](C)C)C=C2)c2ccc(N(C)C)cc2)cc1 [Se13, [4-[bis(4-dimethylaminophenyl]methylene]-1-cyclohexa-2,5-dienylidene]-dimethyl-ammonium]
  Killing: X (Effective killing was defined as >50% dead bacteria)
